Source: US20210254272A1, “TEXTILES HAVING ANTIMICROBIAL PROPERTIES” (Livinguard AG, priority 2015, published 2021)

Tested on: E. coli (ATCC 25922)
Assay: AATCC Test Method 100-2012 antibacterial activity of the treated textile, after 25 washes and 12 abrasion cycles, contact time 60 minutes
Type: cell-based
Settings: for Log reduction of antimicrobial performance: 1% o.w.f; for Log reduction of antimicrobial performance in 100 GSM Polyester fabric / Log reduction of antimicrobial performance in 100 GSM cotton fabric / Log reduction of antimicrobial performance in 300 GSM Polyester fabric / Log reduction of antimicrobial performance in 300 GSM cotton fabric / Performance Test-Log reduction of antimicrobial performance: 2 min; for Performance Test-Log reduction of antimicrobial performance: pad process, single agent 5 gm/lit
Method: The antibacterial activity of the textile was tested in accordance with AATCC Test Method 100-2012. Prior to the test, the fabric was cut into coupons of 2×4 inches and washed separately 25 times, and exposed to 12 abrasion cycles, as per US EPA protocol 90072PA4 (described further below). The tests were made against E. coli (ATCC 25922). Contact time was 60 minutes, after inoculating with 10^8 CFU per coupon.

[1] = exhaust 80° C., 60 min, curing 180° C., dosage 0.1% o.w.f
[2] = exhaust 80° C., 60 min, curing 180° C., dosage 0.2% o.w.f
[3] = exhaust 80° C., 60 min, curing 180° C., dosage 0.5% o.w.f
[4] = exhaust 80° C., 60 min, curing 180° C., dosage 0.8% o.w.f
[5] = exhaust 80° C., 60 min, curing 180° C., dosage 1.0% o.w.f

Silver was tested, and the “Log reduction of antimicrobial performance of each active ingredient” value (“Log reduction … of each active ingredient” for short) (exhaust 60° C., solution dosage 1% o.w.f, process time 60 min) was 1.1 Log, the “Log reduction … of each active ingredient” value (exhaust 60° C., solution dosage 1% o.w.f, process time 90 min) was 1.3 Log and the “Log reduction … of each active ingredient” value (exhaust 60° C., solution dosage 1% o.w.f, process time 120 min) was 1.5 Log. The “Log reduction … of each active ingredient” value (exhaust 60° C., solution dosage 1% o.w.f, process time 180 min) was 1.8 Log, the “Log reduction … of each active ingredient” value (exhaust 60° C., solution dosage 1% o.w.f, process time 240 min) was 1.75 Log and the “Log reduction of antimicrobial performance” value (exhaust 80° C., 60 min, curing 170° C., curing dwell time 0.5 min) was 0.2 Log. The “Log reduction of antimicrobial performance” value (exhaust 80° C., 60 min, curing 170° C., curing dwell time 1.0 min) was 0.5 Log, the “Log reduction of antimicrobial performance” value (exhaust 80° C., 60 min, curing 170° C., curing dwell time 1.5 min) was 0.7 Log and the “Log reduction of antimicrobial performance” value (exhaust 80° C., 60 min, curing 170° C., curing dwell time 2.0 min) was 1.6 Log. For the same substance, the “Log reduction of antimicrobial performance” value (exhaust 80° C., 60 min, curing 170° C., curing dwell time 2.5 min) was 1.1 Log, the “Log reduction of antimicrobial performance” value (exhaust 80° C., 60 min, curing 170° C., curing dwell time 3.0 min) was 0.7 Log and the “Log reduction of antimicrobial performance” value (exhaust 80° C., 60 min, curing 180° C., curing dwell time 0.5 min) was 1.1 Log. The “Log reduction of antimicrobial performance” value (exhaust 80° C., 60 min, curing 180° C., curing dwell time 1.0 min) was 1.3 Log, the “Log reduction of antimicrobial performance” value (exhaust 80° C., 60 min, curing 180° C., curing dwell time 1.5 min) was 1.5 Log and the “Log reduction of antimicrobial performance” value (exhaust 80° C., 60 min, curing 180° C., curing dwell time 2.0 min) was 3.8 Log. For the same substance, the “Log reduction of antimicrobial performance” value (exhaust 80° C., 60 min, curing 180° C., curing dwell time 2.5 min) was 3.7 Log, the “Log reduction of antimicrobial performance” value (exhaust 80° C., 60 min, curing 180° C., curing dwell time 3.0 min) was 3.5 Log and the “Log reduction of antimicrobial performance” value (exhaust 80° C., 60 min, curing 190° C., curing dwell time 0.5 min) was 0.6 Log. The “Log reduction of antimicrobial performance” value (exhaust 80° C., 60 min, curing 190° C., curing dwell time 1.0 min) was 0.9 Log, the “Log reduction of antimicrobial performance” value (exhaust 80° C., 60 min, curing 190° C., curing dwell time 1.5 min) was 1.5 Log and the “Log reduction of antimicrobial performance” value (exhaust 80° C., 60 min, curing 190° C., curing dwell time 2.0 min) was 2.79 Log. The “Log reduction of antimicrobial performance” value (exhaust 80° C., 60 min, curing 190° C., curing dwell time 2.5 min) was 2.2 Log, the “Log reduction of antimicrobial performance” value (exhaust 80° C., 60 min, curing 190° C., curing dwell time 3.0 min) was 1.1 Log and the “Log reduction of antimicrobial performance” value (exhaust 80° C., 60 min, curing temperature 100 ° C.) was 0.21 Log. For the same substance, the “Log reduction of antimicrobial performance” value (exhaust 80° C., 60 min, curing temperature 120 ° C.) was 0.32 Log, the “Log reduction of antimicrobial performance” value (exhaust 80° C., 60 min, curing temperature 140 ° C.) was 0.99 Log and the “Log reduction of antimicrobial performance” value (exhaust 80° C., 60 min, curing temperature 160 ° C.) was 1.04 Log. The “Log reduction of antimicrobial performance” value (exhaust 80° C., 60 min, curing temperature 165 ° C.) was 1.12 Log, the “Log reduction of antimicrobial performance” value (exhaust 80° C., 60 min, curing temperature 170 ° C.) was 1.59 Log and the “Log reduction of antimicrobial performance” value (exhaust 80° C., 60 min, curing temperature 175 ° C.) was 2.05 Log. The “Log reduction of antimicrobial performance” value (exhaust 80° C., 60 min, curing temperature 180 ° C.) was 2.78 Log, the “Log reduction of antimicrobial performance” value (exhaust 80° C., 60 min, curing temperature 185 ° C.) was 2.79 Log and the “Log reduction of antimicrobial performance” value (exhaust 80° C., 60 min, curing temperature 190 ° C.) was 2.8 Log. For the same substance, the “Log reduction of antimicrobial performance” value (exhaust 80° C., 60 min, curing temperature 195 ° C.) was 2.82 Log, the “Log reduction of antimicrobial performance in 100 GSM Polyester fabric” value (“Log reduction … in 100 GSM Polyester fabric” below) [1] was 0.56 Log and the “Log reduction of antimicrobial performance in 100 GSM cotton fabric” value (“Log reduction … in 100 GSM cotton fabric” for short) [1] was 0.55 Log. The “Log reduction of antimicrobial performance in 300 GSM Polyester fabric” value (shortened to “Log reduction … in 300 GSM Polyester fabric”) [1] was 0.54 Log, the “Log reduction of antimicrobial performance in 300 GSM cotton fabric” value (shortened to “Log reduction … in 300 GSM cotton fabric”) [1] was 0.57 Log and the “Log reduction … in 100 GSM Polyester fabric” value [2] was 1.45 Log. The “Log reduction … in 100 GSM cotton fabric” value [2] was 1.35 Log, the “Log reduction … in 300 GSM Polyester fabric” value [2] was 1.48 Log and the “Log reduction … in 300 GSM cotton fabric” value [2] was 1.35 Log. The “Log reduction … in 100 GSM Polyester fabric” value [3] was 1.77 Log, the “Log reduction … in 100 GSM cotton fabric” value [3] was 1.67 Log and the “Log reduction … in 300 GSM Polyester fabric” value [3] was 1.79 Log. For the same substance, the “Log reduction … in 300 GSM cotton fabric” value [3] was 1.67 Log, the “Log reduction … in 100 GSM Polyester fabric” value [4] was 1.85 Log and the “Log reduction … in 100 GSM cotton fabric” value [4] was 1.84 Log. For the same substance, the “Log reduction … in 300 GSM Polyester fabric” value [4] was 1.85 Log, the “Log reduction … in 300 GSM cotton fabric” value [4] was 1.87 Log and the “Log reduction … in 100 GSM Polyester fabric” value [5] was 2.68 Log. The “Log reduction … in 100 GSM cotton fabric” value [5] was 2.87 Log, the “Log reduction … in 300 GSM Polyester fabric” value [5] was 2.65 Log and the “Log reduction … in 300 GSM cotton fabric” value [5] was 2.88 Log. The “Log reduction … of each active ingredient” value (exhaust 80° C., 60 min, dosage 1% o.w.f (test up to 5% o.w.f)) was 2.35 Log, the “Log reduction … of each active ingredient” value (exhaust 80° C., 60 min, dosage 2% o.w.f) was 2.36 Log and the “Log reduction … of each active ingredient” value (exhaust 80° C., 60 min, dosage 3% o.w.f) was 2.37 Log. For the same substance, the “Log reduction … of each active ingredient” value (exhaust 80° C., 60 min, dosage 4% o.w.f) was 2.38 Log, the “Log reduction … of each active ingredient” value (exhaust 80° C., 60 min, dosage 5% o.w.f) was 2.41 Log and the “Log reduction … of each active ingredient” value (exhaust 80 ° C., solution dosage 1% o.w.f, process time 10 min) was 0.5 Log. For the same substance, the “Log reduction … of each active ingredient” value (exhaust 80 ° C., solution dosage 1% o.w.f, process time 20 min) was 1 Log, the “Log reduction … of each active ingredient” value (exhaust 80 ° C., solution dosage 1% o.w.f, process time 30 min) was 1.4 Log and the “Log reduction … of each active ingredient” value (exhaust 80 ° C., solution dosage 1% o.w.f, process time 40 min) was 1.9 Log. The “Log reduction … of each active ingredient” value (exhaust 80 ° C., solution dosage 1% o.w.f, process time 50 min) was 2.4 Log, the “Log reduction … of each active ingredient” value (exhaust 80 ° C., solution dosage 1% o.w.f, process time 60 min) was 2.8 Log and the “Log reduction … of each active ingredient” value (exhaust 80 ° C., solution dosage 1% o.w.f, process time 70 min) was 2.8 Log. The “Log reduction … of each active ingredient” value (exhaust 80 ° C., solution dosage 1% o.w.f, process time 80 min) was 2.8 Log, the “Log reduction … of each active ingredient” value (exhaust 80 ° C., solution dosage 1% o.w.f, process time 90 min) was 2.9 Log and the “Performance Test-Log reduction of antimicrobial performance” value (“Performance Test-Log reduction” below) (curing 120° C.) was 0.02 Log. The “Performance Test-Log reduction” value (curing 140° C.) was 0.24 Log, the “Performance Test-Log reduction” value (curing 150° C.) was 0.31 Log and the “Performance Test-Log reduction” value (curing 160° C.) was 0.53 Log.
